Data published in patent US20230295200A1 (REGENTS OF THE UNIVERSITY OF MICHIGAN, priority 2022, published 2023).

What was measured:
STAT5A = biological target: T1, STAT5A (Homo sapiens, UniProt P42229); test: Fluorescence polarization (FP) binding assay, STAT5A; conditions: FP competition, 5 nM fluorescein-labeled tracer, 200 nM protein, PBS pH7.4
T1 sequence (P42229 1-794): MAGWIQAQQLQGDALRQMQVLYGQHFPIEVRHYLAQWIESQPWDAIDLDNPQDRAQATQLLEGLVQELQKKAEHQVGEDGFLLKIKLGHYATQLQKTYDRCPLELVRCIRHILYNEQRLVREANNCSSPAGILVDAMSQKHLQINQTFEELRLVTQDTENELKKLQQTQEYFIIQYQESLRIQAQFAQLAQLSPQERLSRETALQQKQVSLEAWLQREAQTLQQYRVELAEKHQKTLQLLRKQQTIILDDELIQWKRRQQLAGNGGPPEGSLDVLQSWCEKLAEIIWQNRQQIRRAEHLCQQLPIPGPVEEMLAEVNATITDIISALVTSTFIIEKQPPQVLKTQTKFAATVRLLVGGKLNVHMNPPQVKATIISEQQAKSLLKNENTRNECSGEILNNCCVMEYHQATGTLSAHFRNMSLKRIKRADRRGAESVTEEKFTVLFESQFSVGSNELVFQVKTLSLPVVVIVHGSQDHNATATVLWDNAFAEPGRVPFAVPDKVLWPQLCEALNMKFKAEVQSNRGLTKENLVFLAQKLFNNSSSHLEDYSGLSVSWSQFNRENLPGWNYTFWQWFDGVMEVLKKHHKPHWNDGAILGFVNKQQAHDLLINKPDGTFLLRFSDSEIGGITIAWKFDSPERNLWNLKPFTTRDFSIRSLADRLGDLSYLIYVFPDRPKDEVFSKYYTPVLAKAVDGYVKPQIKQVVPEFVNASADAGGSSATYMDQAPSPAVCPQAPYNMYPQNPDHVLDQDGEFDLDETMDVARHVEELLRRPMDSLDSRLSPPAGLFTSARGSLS
Procedure, shortened: (§1)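 Fluorescein-labelled tracer (5 nM) with 200 nM STAT5 and/or STAT6 protein in PBS pH 7.4, 0.01% BGG, 0.01% Tween-20, 2 mM DTT. Mixed 15 min, then equilibrated 1 h at room temperature; read by fluorescence polarization, constants from nonlinear curve fitting.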

STAT6 protein = biological target: T2, STAT6 protein (Homo sapiens, UniProt P42226); test: Fluorescence polarization (FP) binding assay, STAT6; conditions: FP competition, 5 nM fluorescein-labeled tracer, 200 nM protein, PBS pH7.4; read-out: Binding STAT6
T2 sequence (P42226 1-847): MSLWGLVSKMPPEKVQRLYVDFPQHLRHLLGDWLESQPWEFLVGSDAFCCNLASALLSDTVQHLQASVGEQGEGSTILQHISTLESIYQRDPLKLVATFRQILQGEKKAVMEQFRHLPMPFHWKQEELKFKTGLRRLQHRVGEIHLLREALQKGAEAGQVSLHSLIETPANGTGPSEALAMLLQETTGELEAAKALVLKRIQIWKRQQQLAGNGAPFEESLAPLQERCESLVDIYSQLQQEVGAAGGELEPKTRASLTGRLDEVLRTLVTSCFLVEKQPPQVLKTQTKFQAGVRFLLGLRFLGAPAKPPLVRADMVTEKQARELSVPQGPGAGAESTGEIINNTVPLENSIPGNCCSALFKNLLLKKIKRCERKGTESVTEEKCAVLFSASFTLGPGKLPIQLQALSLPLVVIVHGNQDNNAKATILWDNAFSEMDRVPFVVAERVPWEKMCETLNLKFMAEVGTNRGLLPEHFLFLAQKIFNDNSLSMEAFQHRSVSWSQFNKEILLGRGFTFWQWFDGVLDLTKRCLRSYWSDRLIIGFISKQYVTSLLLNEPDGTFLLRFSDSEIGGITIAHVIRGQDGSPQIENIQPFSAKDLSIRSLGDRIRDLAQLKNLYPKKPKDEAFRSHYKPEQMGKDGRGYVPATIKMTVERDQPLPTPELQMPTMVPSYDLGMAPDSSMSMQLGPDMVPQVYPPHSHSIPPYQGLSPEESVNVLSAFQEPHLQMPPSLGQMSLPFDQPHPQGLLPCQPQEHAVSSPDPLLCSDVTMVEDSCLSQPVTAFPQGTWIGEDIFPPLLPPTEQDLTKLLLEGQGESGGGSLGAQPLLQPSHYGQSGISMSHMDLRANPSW
Procedure, shortened: as §1

Row | Structure (SMILES) | Ki (STAT5A) [nM] | Ki (STAT6 protein) [nM]
1 | CC(C)(C)[C@H](NC(=O)c1cc2cc(C(F)(F)P(=O)(O)O)ccc2s1)C(=O)N1Cc2ccccc2C[C@H]1C(=O)N1CCOC(c2ccccn2)C1 (stereo partly drawn) [Compound 216, ((2-(((2S)-3,3-dimethyl-1-oxo-1-((3S)-3-(2-(pyridin-2-yl)morpholine-4-carbonyl)-3,4-dihydroisoquinolin-2(1H)-yl)butan-2-yl)carbamoyl)benzo[b]thiophen-5-yl)difluoromethyl)phosphonic acid] | > 10000 | > 10000
2 | CC(C)(C)[C@H](NC(=O)c1cc2cc(C(F)(F)P(=O)(O)O)ccc2s1)C(=O)N1CCC[C@H]1C(=O)Nc1ccc(-c2ccccc2)s1 [Compound 305, ((2-(((S)-3,3-dimethyl-1-oxo-1-((S)-2-((5-phenylthiophen-2-yl)carbamoyl)pyrrolidin-1-yl)butan-2-yl)carbamoyl)benzo[b]thiophen-5-yl)difluoromethyl)phosphonic acid] | 100 to 1000 | 1000 to 10000
3 | CC(C)(C)[C@H](NC(=O)c1cc2cc(C(F)(F)P(=O)(O)O)ccc2s1)C(=O)N1CCCCC[C@H]1C(=O)Nc1ccc(-c2ccccc2)s1 [Compound 306, ((2-(((S)-3,3-dimethyl-1-oxo-1-((S)-2-((5-phenylthiophen-2-yl)carbamoyl)azepan-1-yl)butan-2-yl)carbamoyl)benzo[b]thiophen-5-yl)difluoromethyl)phosphonic acid] | 1000 to 10000 | > 10000
4 | CCO[C@@H]1CCN(C(=O)[C@@H](NC(=O)c2cc3cc(C(F)(F)P(=O)(O)O)ccc3s2)C(C)(C)C)[C@@H]1C(=O)N1CCO[C@H](c2ccccc2)C1 [Compound 307, ((2-(((S)-1-((2S,3R)-3-ethoxy-2-((R)-2-phenylmorpholine-4-carbonyl)pyrrolidin-1-yl)-3,3-dimethyl-1-oxobutan-2-yl)carbamoyl)benzo[b]thiophen-5-yl)difluoromethyl)phosphonic acid] | 1000 to 10000 | 100 to 1000
5 | CCO[C@H]1CCN(C(=O)[C@@H](NC(=O)c2cc3cc(C(F)(F)P(=O)(O)O)ccc3s2)C(C)(C)C)[C@@H]1C(=O)N1CCO[C@H](c2ccccc2)C1 [Compound 308, ((2-(((S)-1-((2S,3S)-3-ethoxy-2-((R)-2-phenylmorpholine-4-carbonyl)pyrrolidin-1-yl)-3,3-dimethyl-1-oxobutan-2-yl)carbamoyl)benzo[b]thiophen-5-yl)difluoromethyl)phosphonic acid] | 1000 to 10000 | 1000 to 10000
6 | CN(C)C(=O)CCN(C(=O)[C@@H]1CCCN1C(=O)[C@@H](NC(=O)c1cc2cc(C(F)(F)P(=O)(O)O)ccc2s1)C(C)(C)C)c1ccc(-c2nccs2)cc1 [Compound 309, ((2-(((S)-1-((S)-2-((3-(dimethylamino)-3-oxopropyl)(4-(thiazol-2-yl)phenyl)carbamoyl)pyrrolidin-1-yl)-3,3-dimethyl-1-oxobutan-2-yl)carbamoyl)benzo[b]thiophen-5-yl)difluoromethyl)phosphonic acid] | 1000 to 10000 | 100 to 1000
7 | CN(C)C(=O)CCN(C(=O)[C@@H]1CCCN1C(=O)[C@@H](NC(=O)c1cc2cc(C(F)(F)P(=O)(O)O)ccc2s1)C(C)(C)C)c1ccc2ccccc2c1 [Compound 317, ((2-(((S)-1-((S)-2-((3-(dimethylamino)-3-oxopropyl)(naphthalen-2-yl)carbamoyl)pyrrolidin-1-yl)-3,3-dimethyl-1-oxobutan-2-yl)carbamoyl)benzo[b]thiophen-5-yl)difluoromethyl)phosphonic acid] | 1000 to 10000 | 100 to 1000
8 | CN(C)C(=O)CCN(C(=O)[C@@H]1CCCN1C(=O)[C@@H](NC(=O)c1cc2cc(C(F)(F)P(=O)(O)O)ccc2s1)C(C)(C)C)c1ccc(-c2ccccc2)cc1 [Compound 318] | 1000 to 10000 | 1000 to 10000
9 | CN(C)C(=O)CCN(C(=O)[C@@H]1CCCN1C(=O)[C@@H](NC(=O)c1cc2cc(C(F)(F)P(=O)(O)O)ccc2s1)C(C)(C)C)c1cccc(-c2nccs2)c1 [Compound 320, ((2-(((S)-1-((S)-2-((3-(dimethylamino)-3-oxopropyl)(3-(thiazol-2-yl)phenyl)carbamoyl)pyrrolidin-1-yl)-3,3-dimethyl-1-oxobutan-2-yl)carbamoyl)benzo[b]thiophen-5-yl)difluoromethyl)phosphonic acid] | > 10000 | 1000 to 10000
